# Patent US20240398784A1, “C-LINKED ISOQUINOLINE AMIDES AS LRRK2 INHIBITORS, PHARMACEUTICAL COMPOSITIONS, AND USES THEREOF” (Merck Sharp & Dohme LLC, priority 2021, published 2024)
# Target: LRRK2 G2019S (Homo sapiens, UniProt Q5S007, G2019S)
# Experiment: LRRK2 G2019S Km ATP LanthaScreen assay
# Format: biochemical
# Conditions: read-out: LRRK2 pIC50 (converted)
# Description: Unless otherwise noted, all reactions are magnetically stirred. Unless otherwise noted, when diethyl ether is used in the experiments described below, it is Fisher ACS certified material and is stabilized with BHT. Unless otherwise noted, “concentrated” and/or “solvent removed under reduced pressure” means evaporating the solvent from a solution or mixture using a rotary evaporator or vacuum pump. Unless otherwise noted, flash chromatography is carried out on a Teledyne Isco (Lincoln, NE), Analogix (Burlington, WI), or Biotage (Stockholm, SWE) automated chromatography system using a commercially available cartridge as the column. Columns may be purchased from Teledyne Isco, Analogix, Biotage, Varian (Palo Alto, CA), or Supelco (Bellefonte, PA) and are usually filled with silica gel as the stationary phase. Reverse phase prep-HPLC conditions, where used, can be found at the end of each experimental section. Aqueous solutions were concentrated on a Genevac (Ipswich, ENG) or by freeze-drying/lyophilization.
# Sequence of LRRK2 G2019S (Q5S007 whole entry G2019S): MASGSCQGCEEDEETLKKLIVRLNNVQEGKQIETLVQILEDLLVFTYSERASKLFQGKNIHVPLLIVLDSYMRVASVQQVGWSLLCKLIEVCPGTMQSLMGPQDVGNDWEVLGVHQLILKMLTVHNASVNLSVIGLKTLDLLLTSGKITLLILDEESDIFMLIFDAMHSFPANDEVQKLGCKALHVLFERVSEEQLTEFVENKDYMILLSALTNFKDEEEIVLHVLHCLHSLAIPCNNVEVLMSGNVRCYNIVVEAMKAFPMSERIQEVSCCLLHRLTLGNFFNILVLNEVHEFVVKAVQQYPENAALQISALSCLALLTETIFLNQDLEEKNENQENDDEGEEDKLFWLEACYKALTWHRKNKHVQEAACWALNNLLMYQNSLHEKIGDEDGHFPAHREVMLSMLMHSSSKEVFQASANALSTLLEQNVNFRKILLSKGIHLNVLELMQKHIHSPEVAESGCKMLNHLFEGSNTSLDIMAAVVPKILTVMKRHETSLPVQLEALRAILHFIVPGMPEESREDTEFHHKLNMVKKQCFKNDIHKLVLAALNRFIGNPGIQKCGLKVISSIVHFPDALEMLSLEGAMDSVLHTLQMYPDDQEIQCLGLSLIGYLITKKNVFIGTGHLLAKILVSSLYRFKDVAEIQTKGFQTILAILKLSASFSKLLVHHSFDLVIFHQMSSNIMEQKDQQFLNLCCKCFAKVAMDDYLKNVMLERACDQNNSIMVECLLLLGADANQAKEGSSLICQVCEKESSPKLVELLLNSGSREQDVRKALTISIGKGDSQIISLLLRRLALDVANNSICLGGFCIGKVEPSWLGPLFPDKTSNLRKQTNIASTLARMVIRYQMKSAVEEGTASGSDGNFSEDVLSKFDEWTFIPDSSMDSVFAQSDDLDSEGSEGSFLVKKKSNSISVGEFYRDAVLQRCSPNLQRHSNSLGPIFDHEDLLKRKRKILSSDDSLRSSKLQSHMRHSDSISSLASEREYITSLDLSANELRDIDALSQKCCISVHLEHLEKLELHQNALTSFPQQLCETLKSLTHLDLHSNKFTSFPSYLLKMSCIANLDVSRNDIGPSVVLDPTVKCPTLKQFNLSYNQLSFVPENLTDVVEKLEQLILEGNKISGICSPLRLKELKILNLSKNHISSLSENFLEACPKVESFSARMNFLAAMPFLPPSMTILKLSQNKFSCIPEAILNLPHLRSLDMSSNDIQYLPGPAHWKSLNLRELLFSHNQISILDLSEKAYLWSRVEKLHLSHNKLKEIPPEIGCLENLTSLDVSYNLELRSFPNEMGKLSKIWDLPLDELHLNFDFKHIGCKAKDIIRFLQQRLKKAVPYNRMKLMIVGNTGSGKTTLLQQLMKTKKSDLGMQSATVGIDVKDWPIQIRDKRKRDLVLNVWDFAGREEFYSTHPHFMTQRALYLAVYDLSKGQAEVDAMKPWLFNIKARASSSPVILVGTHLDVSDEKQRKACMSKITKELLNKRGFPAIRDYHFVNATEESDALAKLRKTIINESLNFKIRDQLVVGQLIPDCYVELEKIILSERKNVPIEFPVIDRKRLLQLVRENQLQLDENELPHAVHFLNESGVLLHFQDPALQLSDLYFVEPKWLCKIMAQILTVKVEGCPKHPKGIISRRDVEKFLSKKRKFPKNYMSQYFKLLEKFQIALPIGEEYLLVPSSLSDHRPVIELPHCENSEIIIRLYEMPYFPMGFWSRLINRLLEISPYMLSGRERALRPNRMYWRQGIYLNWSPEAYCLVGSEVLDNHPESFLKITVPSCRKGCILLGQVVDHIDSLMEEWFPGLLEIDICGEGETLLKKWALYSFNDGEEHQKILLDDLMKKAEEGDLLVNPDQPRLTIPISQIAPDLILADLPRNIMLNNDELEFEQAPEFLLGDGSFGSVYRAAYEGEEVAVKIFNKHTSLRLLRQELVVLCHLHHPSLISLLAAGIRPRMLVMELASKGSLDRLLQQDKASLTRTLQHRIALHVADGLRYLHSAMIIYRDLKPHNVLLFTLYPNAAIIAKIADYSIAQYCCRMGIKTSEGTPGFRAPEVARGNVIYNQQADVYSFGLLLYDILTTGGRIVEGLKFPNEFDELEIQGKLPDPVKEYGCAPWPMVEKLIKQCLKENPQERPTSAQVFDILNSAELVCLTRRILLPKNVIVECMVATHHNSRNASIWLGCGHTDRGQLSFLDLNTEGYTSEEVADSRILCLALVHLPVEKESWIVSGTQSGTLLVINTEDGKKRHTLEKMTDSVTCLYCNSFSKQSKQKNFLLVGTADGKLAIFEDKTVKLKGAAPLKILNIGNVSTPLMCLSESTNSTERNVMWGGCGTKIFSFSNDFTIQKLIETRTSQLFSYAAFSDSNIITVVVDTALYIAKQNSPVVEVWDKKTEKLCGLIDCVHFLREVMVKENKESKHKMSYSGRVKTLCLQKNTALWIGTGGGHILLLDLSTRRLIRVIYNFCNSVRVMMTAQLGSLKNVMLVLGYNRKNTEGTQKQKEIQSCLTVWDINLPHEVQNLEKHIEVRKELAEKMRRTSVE
row,Compound,IC50 [nM]
1,"CC1(C)COCC1(C)N1CCC(c2cc3cc(NC(=O)C4CC45CCOCC5)ncc3cc2Cl)CC1 (single isomer, unassigned) [Ex-6.19, N-(7-chloro-6-(1-(3,4,4-trimethyltetrahydrofuran-3-yl)piperidin-4-yl)isoquinolin-3-yl)-6-oxaspiro[2.5]octane-1-carboxamide]",39.8
2,"CC1(N2CCC(c3cc4cc(NC(=O)C5CC(c6ccccn6)C5)ncc4cc3Cl)CC2)COCC1O (single isomer, unassigned) [Ex-4.75, N-(7-chloro-6-(1-(4-hydroxy-3-methyltetrahydrofuran-3-yl)piperidin-4-yl)isoquinolin-3-yl)-3-(pyridin-2-yl)cyclobutane-1-carboxamide]",100
3,CC(C)OC1CCC(C(=O)Nc2cc3cc(C4CCN(C5(C)COCC5O)CC4)c(Cl)cc3cn2)CO1 (stereo not drawn) [Ex-2.27],0.324
4,"CC1(N2CCC(c3cc4cc(NC(=O)C5C6CCOCC65)ncc4cc3Cl)CC2)COCC1F (single isomer, unassigned) [Ex-6.40, N-(7-chloro-6-(1-(4-fluoro-3-methyltetrahydrofuran-3-yl)piperidin-4-yl)isoquinolin-3-yl)-3-oxabicyclo[4.1.0]heptane-7-carboxamide]",0.0813
5,"CC1(N2CCC(c3cc4cc(NC(=O)C5CCC6(CCC6)OC5)ncc4cc3Cl)CC2)COCC1O (single isomer, unassigned) [Ex-4.23, N-(7-chloro-6-(1-(4-hydroxy-3-methyltetrahydrofuran-3-yl)piperidin-4-yl)isoquinolin-3-yl)-5-oxaspiro[3.5]nonane-7-carboxamide]",2.34
6,"CC1(N2CCC(c3cc4cc(NC(=O)C5CC(c6ccccn6)C5)ncc4cc3Cl)CC2)COCC1O (single isomer, unassigned) [Ex-4.76, N-(7-chloro-6-(1-(4-hydroxy-3-methyltetrahydrofuran-3-yl)piperidin-4-yl)isoquinolin-3-yl)-3-(pyridin-2-yl)cyclobutane-1-carboxamide]",41.7
7,"CC1(N2CCC(c3cc4cc(NC(=O)C5CC56CCOCC6)ncc4cc3Cl)CC2)COC(C2CC2)C1 (single isomer, unassigned) [Ex-6.16, N-(7-chloro-6-(1-(5-cyclopropyl-3-methyltetrahydrofuran-3-yl)piperidin-4-yl)isoquinolin-3-yl)-6-oxaspiro[2.5]octane-1-carboxamide]",0.214
8,"O=C(Nc1cc2cc(C3CCN(C4COC4)CC3F)c(Cl)cc2cn1)C1CC1 (single isomer, unassigned) [Ex-14.1, N-(7-chloro-6-((3R,4R,3S,4R,3R,4S or 3S,4S)-3-fluoro-1-(oxetan-3-yl)piperidin-4-yl)isoquinolin-3-yl)cyclopropanecarboxamide]",5.89
9,"CC1(C)COCC1(C)N1CCC(c2cc3cc(NC(=O)C4CC45CCOCC5)ncc3cc2Cl)CC1 (single isomer, unassigned) [Ex-6.18, N-(7-chloro-6-(1-(3,4,4-trimethyltetrahydrofuran-3-yl)piperidin-4-yl)isoquinolin-3-yl)-6-oxaspiro[2.5]octane-1-carboxamide]",0.708
10,"CC1(N2CCC(c3cc4cc(NC(=O)C5C6CCOCC65)ncc4cc3Cl)CC2)COCC1O (single isomer, unassigned) [Ex-4.34, N-(7-chloro-6-(1-(4-hydroxy-3-methyltetrahydrofuran-3-yl)piperidin-4-yl)isoquinolin-3-yl)-3-oxabicyclo[4.1.0]heptane-7-carboxamide]",1.38
11,"COCC(C)c1cc2cc(NC(=O)C3CC34CCOCC4)ncc2cc1Cl (single isomer, unassigned) [Ex-9.12, N-(7-chloro-6-(1-methoxypropan-2-yl)isoquinolin-3-yl)-6-oxaspiro[2.5]octane-1-carboxamide]",35.5
12,"N#CC1(c2ccc3cnc(NC(=O)C4CC45CC5)cc3c2)CC12CC2 (single isomer, unassigned) [Ex-2.2]",0.398
13,CC1(N2CCC(c3cc4cc(NC(=O)C5(Cn6ccnc6)CC5)ncc4cc3Cl)CC2)COCC1O (stereo not drawn) [Ex-3.3],3.31
14,"CC1(C)CC(C(=O)Nc2cc3cc(C4CCN(C5(C)CCOC5)CC4)c(Cl)cc3cn2)CCO1 (single isomer, unassigned) [Ex-6.44, N-(7-chloro-6-(1-(3-methyltetrahydrofuran-3-yl)piperidin-4-yl)isoquinolin-3-yl)-2,2-dimethyltetrahydro-2H-pyran-4-carboxamide]",5.37
15,CC1(N2CCC(c3cc4cc(NC(=O)[C@@H]5CCCO5)ncc4cc3Cl)CC2)COCC1O (stereo partly drawn) [Ex-2.28],0.513
16,"CC1(C)CC(C(=O)Nc2cc3cc(C4CCC(N5CCC(F)C5)CC4)c(Cl)cc3cn2)CCO1 (single isomer, unassigned) [Ex-5.12, N-(7-chloro-6-(4-(3-fluoropyrrolidin-1-yl)cyclohexyl)isoquinolin-3-yl)-2,2-dimethyltetrahydro-2H-pyran-4-carboxamid]",2.24
17,"CC1(N2CCC(c3cc4cc(NC(=O)c5cnn(C67CC(C6)C7)c5)ncc4cc3Cl)CC2)COCC1O (single isomer, unassigned) [Ex-1.52, 1-(bicyclo[1.1.1]pentan-1-yl)-N-(7-chloro-6-(1-((3R,4R or 3S,4S)-4-hydroxy-3-methyltetrahydrofuran-3-yl)piperidin-4-yl)isoquinolin-3-yl)-1H-pyrazole-4-carboxamide]",1.62
18,"O=C(Nc1cc2cc(C3CCN(C4COC4)CC3)c(Cl)cc2cn1)C1CC12CCC(F)(F)CC2 (single isomer, unassigned) [Ex-1.8, (R or S)-N-(7-chloro-6-(1-(oxetan-3-yl)piperidin-4-yl)isoquinolin-3-yl)-6,6-difluorospiro[2.5]octane-1-carboxamide]",21.4
19,"CCOC1CC2(C1)CC2C(=O)Nc1cc2cc(C3CCN(C4(C)COCC4O)CC3)c(Cl)cc2cn1 (single isomer, unassigned) [Ex-4.31, N-(7-chloro-6-(1-(4-hydroxy-3-methyltetrahydrofuran-3-yl)piperidin-4-yl)isoquinolin-3-yl)-5-ethoxyspiro[2.3]hexane-1-carboxamide]",5.62
20,"CCC1C(C(=O)Nc2cc3cc(C4CCN(C5(C)COCC5O)CC4)c(Cl)cc3cn2)C1c1ccccn1 (single isomer, unassigned) [Ex-4.55, N-(7-chloro-6-(1-(4-hydroxy-3-methyltetrahydrofuran-3-yl)piperidin-4-yl)isoquinolin-3-yl)-2-ethyl-3-(pyridin-2-yl)cyclopropane-1-carboxamide]",30.9

# Next, values leading:
row,IC50 [nM],Compound
1,0.0813,"Cn1ncc(C2CC2C(=O)Nc2cc3cc(C4CCN(C5(C)COCC5O)CC4)c(Cl)cc3cn2)n1 (racemic) [Ex-20.2, (1R,2R and 1S,2S)-N-(7-chloro-6-(1-(4-hydroxy-3-methyltetrahydrofuran-3-yl)piperidin-4-yl)isoquinolin-3-yl)-2-(2-methyl-2H-1,2,3-triazol-4-yl)cyclopropane-1-carboxamide]"
2,8.32,CC1(N2CCC(c3cc4cc(NC(=O)C5CC5C#N)ncc4cc3Cl)CC2)COC1 (stereo not drawn) [Ex-2.8]
3,0.631,"Cn1cc(C(=O)Nc2cc3cc(C4(C#N)CC45CC5)ccc3cn2)cn1 (single isomer, unassigned) [Ex-18.15, (R or S)-N-(6-(1-cyanospiro[2.2]pentan-1-yl)isoquinolin-3-yl)-1-methyl-1H-pyrazole-4-carboxamide]"
4,7.41,Cc1cc2cnc(NC(=O)C3CCOC(C)(C)C3)cc2cc1C1CCN(C2(C)COCC2O)CC1 (stereo not drawn) [Ex-2.50]
5,28.8,"Cc1cc2cnc(NC(=O)C3CC3c3cnn(C)c3)cc2cc1C1CC12CC2 (single isomer, unassigned) [Ex-16.4, 2-(1-methyl-1H-pyrazol-4-yl)-N-(7-methyl-6-(spiro[2.2]pentan-1-yl)isoquinolin-3-yl)cyclopropane-1-carboxamide]"
6,0.501,"Cc1cc2cnc(NC(=O)C3CC3c3ccccn3)cc2cc1C1CCN(C2(C)COCC2F)CC1 (single isomer, unassigned) [Ex-13.3, (1R,2R or 1S,2S)-N-(6-(1-((3R,4R or 3S,4S)-4-fluoro-3-methyltetrahydrofuran-3-yl)piperidin-4-yl)-7-methylisoquinolin-3-yl)-2-(pyridin-2-yl)cyclopropane-1-carboxamide]"
7,72.4,"CC(C)Cn1nccc1C1CC1C(=O)Nc1cc2cc(C3CCN(C4(C)COCC4O)CC3)c(Cl)cc2cn1 (single isomer, unassigned) [Ex-4.61, N-(7-chloro-6-(1-(4-hydroxy-3-methyltetrahydrofuran-3-yl)piperidin-4-yl)isoquinolin-3-yl)-2-(1-isobutyl-1H-pyrazol-5-yl)cyclopropane-1-carboxamide]"
8,0.288,CC(C(=O)Nc1cc2cc(C3CCN(C4(C)COCC4O)CC3)c(Cl)cc2cn1)c1cnn(C)c1 (stereo not drawn) [Ex-2.106]
9,22.4,"CCC1C(C(=O)Nc2cc3cc(C4CC(C#N)C4)c(Cl)cc3cn2)C1c1cnn(C)c1 (stereo not drawn) [Ex-9.18, N-(7-chloro-6-(3-cyanocyclobutyl)isoquinolin-3-yl)-2-ethyl-3-(1-methyl-1H-pyrazol-4-yl)cyclopropane-1-carboxamide]"
10,0.0813,"CCC1C(C(=O)Nc2cc3cc(C4CCN(C5(C)COCC5F)CC4)c(Cl)cc3cn2)C1c1cnn(C)c1 (single isomer, unassigned) [Ex-1.34, (1R,2R,3R or 1R,2S,3R or 1S,2R,3S, or 1S,2S,3S)-N-(7-chloro-6-(1-((3R,4R or 3S,4S)-4-fluoro-3-methyltetrahydrofuran-3-yl)piperidin-4-yl)isoquinolin-3-yl)-2-ethyl-3-(1-methyl-1H-pyrazol-4-yl)cyclopropane-1-carboxamide]"
